# From the NIST ThermoML archive (doi:10.1021/je301014d)
# ± gives the expanded uncertainty stated by the source.
# Assays:
# [1] = Crystal; DTA
# [2] = Molar enthalpy of transition or fusion; conditions: Crystal; DSC
SMILES,Normal melting temperature [1],Molar enthalpy of transition or fusion [2]
"C[C@H]1OC(=O)[C@@H](C)OC1=O [(3R,6R)-3,6-dimethyl-1,4-dioxane-2,5-dione]",97.23 ± 1.1 °C,3.87 ± 0.0956 kcal/mol
"C[C@@H]1OC(=O)[C@H](C)OC1=O [(3S,6S)-3,6-dimethyl-1,4-dioxane-2,5-dione]",97.82 ± 1.1 °C,3.87 ± 0.0956 kcal/mol
